The values below come from patent publication US20240409556A1, “BENZOPIPERAZINE AND RELATED ANALOGS FOR INHIBITING YAP/TAZ-TEAD” (Springworks Therapeutics, Inc., priority 2023, published 2024).

What all share (type): cell-based
The test system of assay [1] is NCI-H226 mesothelioma cell line. The assay can be described thus: Mesothelioma cell line proliferation assay, NCI-H226 (ATPlite). Conditions: NCI-H226 cells, 6 days with compound, cell viability by ATPlite. On the procedure: (§1) Example 57: Activity of Compounds of the Disclosure in Mesothelioma Cell Line Proliferation Assays
(§2) Mesothelioma cell lines, NCI-H226 and NCI-H2052 (both sourced from the ATCC cell culture collection) were plated in 96-well plates (Corning® 96 Well White Polystyrene Microplate clear flat bottom, white polystyrene (TC-Treated)), at 1500 cells/well in full medium (RPMI 1640 ATCC modification with L-glutamine, HEPES, Phenol Red, Sodium Pyruvate, High glucose, Low sodium bicarbonate and 10% fetal bovine serum). Cells were incubated overnight at 37° C. in an incubator with 5% CO2. Then compounds, dissolved in DMSO, were added in dose-response. Cells were incubated with compound dilutions for another 6 days at 37° C. in an incubator with 5% CO2. Cell viability was quantitated using the ATPlite kit (Perkin-Elmer) and the luminescence was read-out using an Envision instrument (Perkin-Elmer). The amount of relative light units produced using the ATPlite kit was used to calculate percent of inhibition.
(§3) The activities of some example compounds are depicted in Table 4. The activity ranges A, B and C refer to EC50 values in the mesothelioma cell line proliferation assay as described as follows: “A”: EC50<1 μM; “B”: 1 μM≤EC50≤10 μM and “C”: EC50>10 μM; NT: not tested.
(Cellular ATP, detected with luciferase, serves as a proxy for viable cell number.)

The subject of assay [2] is YAP/TAZ-TEAD transcription. The assay is described as follows: Reporter gene assay for measuring the inhibition of YAP/TAZ-TEAD transcription (TEAD-responsive element luciferase reporter in Hek293T cells). Conditions: 24 hours incubation. A digest of the protocol: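 HEK293T cells transiently transfected with a TEAD-responsive luciferase reporter were exposed to compounds for 24 h at 37° C/5% CO2, then luminescence was read. Percent inhibition normalised to vehicle (0%) and positive-control inhibitor (100%); IC50 derived.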
(In general: A reporter such as luciferase makes a cellular process visible.)

Assay [3] concerns NCI-H2052 mesothelioma cell line. The assay is described as follows: Mesothelioma cell line proliferation assay, NCI-H2052 (ATPlite). Conditions: NCI-H2052 cells, 6 days with compound, cell viability by ATPlite. On the procedure: as §1, §2, §3

A word on the EC50: it is the concentration needed to bring the measured effect to its halfway point. In general, IC50 refers to the midpoint of a concentration-inhibition curve. Higher therefore signals weaker potency in that assay. For `C=CC(=O)N1CCN2c3ccccc3N(c3ccc(C(F)(F)F)cc3)CC2C1` (single isomer, unassigned) [14-En2, (R)- or (S)-1-(6-(4-(trifluoromethyl)phenyl)-1,2,4,4a,5,6-hexahydro-3H-pyrazino[1,2-a]quinoxalin-3-yl)prop-2-en-1-one], the EC50 in assay [1] and in assay [3] was below 1 µM in each case. The molecule also registered an IC50 in assay [2] below 1 µM.
For the molecule `C=CC(=O)N1CCN2C(=O)CN(c3ccc(C(F)(F)F)cc3)CC2C1` (stereo not drawn) [compound 37, 8-acryloyl-2-(4-(trifluoromethyl)phenyl)octahydro-4H-pyrazino[1,2-a]pyrazin-4-one], the EC50 in assay [1] (Homo sapiens, 144 h) was below 1 µM; in assay [3] (Homo sapiens, 144 h), below 1 µM. Besides, the IC50 in assay [2] (Homo sapiens, HEK-293T, 24 h) was below 1 µM.
For `FC(F)(F)c1ccc(N2CCN(Cc3cn[nH]c3)c3ccccc32)cc1` [compound 63, 1-((1H-pyrazol-4-yl)methyl)-4-(4-(trifluoromethyl)phenyl)-1,2,3,4-tetrahydroquinoxaline], the EC50 in assay [1] (Homo sapiens, 144 h) is below 1 µM; in assay [3] (Homo sapiens, 144 h), below 1 µM. The molecule further returned an IC50 in assay [2] (Homo sapiens, HEK-293T, 24 h) below 1 µM.
`C=CC(=O)NCC1CN(c2ccc(C(F)(F)F)cc2)c2ccccc2O1` (stereo not drawn) [compound 35, N-((4-(4-(trifluoromethyl)phenyl)-3,4-dihydro-2H-benzo[b][1,4]oxazin-2-yl)methyl)acrylamide]: the EC50 was below 1 µM in assay [1] (Homo sapiens, 144 h) and below 1 µM in assay [3] (Homo sapiens, 144 h). In assay [2] (Homo sapiens, HEK-293T, 24 h), this molecule returned an IC50 below 1 µM.
Consider `CNS(=O)(=O)N1CCN2c3ncccc3N(c3ccc(C(F)(F)F)cc3)CC2C1` (single isomer, unassigned) [45-En2, (R)- or (S)-N-methyl-5-(4-(trifluoromethyl)phenyl)-5,6,6a,7,9,10-hexahydro-8H-pyrazino[1,2-a]pyrido[3,2-e]pyrazine-8-sulfonamide], for which the EC50 is below 1 µM in assay [1] (Homo sapiens, 144 h) and below 1 µM in assay [3] (Homo sapiens, 144 h). Besides, the IC50 in assay [2] is below 1 µM.
As for `CC(=O)NCC1CN(c2ccc(C(F)(F)F)cc2)c2cc(Cl)cnc2O1` (single isomer, unassigned) [75-En2, (R)- or (S)-N-((7-chloro-1-(4-(trifluoromethyl)phenyl)-2,3-dihydro-1H-pyrido[2,3-b][1,4]oxazin-3-yl)methyl)acetamide], the EC50 in assay [1] (Homo sapiens, 144 h) was below 1 µM; in assay [3] (Homo sapiens, 144 h), below 1 µM. In assay [2], this molecule yielded an IC50 below 1 µM.
Regarding `CC(=O)N1CCN2c3nccnc3N(c3ccc(C(F)(F)F)cc3)CC2C1` (single isomer, unassigned) [40-En1, (R)- or (S)-1-(5-(4-(trifluoromethyl)phenyl)-5,6,6a,7,9,10-hexahydro-8H-dipyrazino[1,2-a:2′,3′-e]pyrazin-8-yl)ethan-1-one], the EC50 in assay [1] (Homo sapiens, 144 h) was below 1 µM; in assay [3] (Homo sapiens, 144 h), below 1 µM. Moreover, in assay [2], the IC50 was below 1 µM.
For `O=C(NO)C1CCN2c3ccccc3N(c3ccc(C(F)(F)F)cc3)CC2C1` [116B-En2, (6aS,8S)- or (6aR,8S)- or (6aR,8R)- or (6aS,8R)-N-hydroxy-5-(4-(trifluoromethyl)phenyl)-6,6a,7,8,9,10-hexahydro-5H-pyrido[1,2-a]quinoxaline-8-carboxamide], the EC50 is below 1 µM in assay [1] (Homo sapiens, 144 h) and below 1 µM in assay [3] (Homo sapiens, 144 h). The same molecule came in with a concentration for half-maximal inhibition (IC50) in assay [2] below 1 µM.
On to `O=C(O)C1(F)CCN2c3ccccc3N(c3ccc(C(F)(F)F)cc3)CC2C1` [123-D1, (6aS,8S)- or (6aR,8S)- or (6aR,8R)- or (6aS,8R)-8-fluoro-5-(4-(trifluoromethyl)phenyl)-6,6a,7,8,9,10-hexahydro-5H-pyrido[1,2-a]quinoxaline-8-carboxylic acid], for which the EC50 in assay [1] (Homo sapiens, 144 h) is below 1 µM; in assay [3] (Homo sapiens, 144 h), below 1 µM. In assay [2] (Homo sapiens, HEK-293T, 24 h), this molecule had an IC50 below 1 µM.
Regarding `CC(C)C(=O)N1CCN2c3ncccc3N(c3ccc(C(F)(F)F)cc3)CC2C1` (single isomer, unassigned) [47-En1, (R)- or (S)-2-methyl-1-(5-(4-(trifluoromethyl)phenyl)-5,6,6a,7,9,10-hexahydro-8H-pyrazino[1,2-a]pyrido[3,2-e]pyrazin-8-yl)propan-1-one], the EC50 in assay [1] (Homo sapiens, 144 h) is below 1 µM; in assay [3] (Homo sapiens, 144 h), below 1 µM. For the same molecule, the IC50 in assay [2] is below 1 µM.
In the case of `C=CC(=O)NC[C@@H]1CN(c2ccc(C(F)(F)F)cc2)c2cccnc2N1` [38-En2, (R)-N-((1-(4-(trifluoromethyl)phenyl)-1,2,3,4-tetrahydropyrido[2,3-b]pyrazin-3-yl)methyl)acrylamide], the EC50 in assay [1] (Homo sapiens, 144 h) was below 1 µM; in assay [3] (Homo sapiens, 144 h), below 1 µM. The same molecule displayed an IC50 in assay [2] (Homo sapiens, HEK-293T, 24 h) below 1 µM.
Regarding `Cc1ccc2c(n1)N1CCC(C(=O)O)CC1CN2c1ccc(C(F)(F)F)cc1` [101-D2, (6aS,8S)— or (6aR,8S)— or (6aR,8R)— or (6aS,8R)-2-methyl-5-(4-(trifluoromethyl)phenyl)-6,6a,7,8,9,10-hexahydro-5H-dipyrido[1,2-a:3′,2′-e]pyrazine-8-carboxylic acid], the EC50 was below 1 µM in assay [1] (Homo sapiens, 144 h) and below 1 µM in assay [3] (Homo sapiens, 144 h). The IC50 in assay [2] was below 1 µM.
For `CC(=O)NCC1CN(c2ccc(C(F)(F)F)cc2)c2ccc(N(C)C)nc2O1` (single isomer, unassigned) [87-En1, (R)- or (S)-N-((6-(dimethylamino)-1-(4-(trifluoromethyl)phenyl)-2,3-dihydro-1H-pyrido[2,3-b][1,4]oxazin-3-yl)methyl)acetamide], the EC50 was below 1 µM in assay [1] (Homo sapiens, 144 h) and below 1 µM in assay [3] (Homo sapiens, 144 h). This molecule also gave an IC50 in assay [2] below 1 µM.
Consider `FC(F)(F)c1ccc(N2CCN(Cc3cnc[nH]3)c3ccccc32)cc1` [compound 51, 1-((1H-imidazol-5-yl)methyl)-4-(4-(trifluoromethyl)phenyl)-1,2,3,4-tetrahydroquinoxaline], for which the EC50 in assay [1] (Homo sapiens, 144 h) is below 1 µM; in assay [3] (Homo sapiens, 144 h), below 1 µM. The molecule also yielded an IC50 in assay [2] (Homo sapiens, HEK-293T, 24 h) below 1 µM.
As to `CC(=O)N1CCN2c3ncccc3N(c3ccc(C(F)(F)F)cc3)CC2C1` (single isomer, unassigned) [29-En1, (R)- or (S)-1-(5-(4-(trifluoromethyl)phenyl)-5,6,6a,7,9,10-hexahydro-8H-pyrazino[1,2-a]pyrido[3,2-e]pyrazin-8-yl)ethan-1-one], the EC50 in assay [1] (Homo sapiens, 144 h) is below 1 µM; in assay [3] (Homo sapiens, 144 h), below 1 µM. This molecule displayed an IC50 in assay [2] (Homo sapiens, HEK-293T, 24 h) below 1 µM.
For the molecule `C=CC(=O)NCC1CN(c2ccc(C(F)(F)F)cc2)c2cccnc2O1` (stereo not drawn) [48-En1, N-((1-(4-(trifluoromethyl)phenyl)-2,3-dihydro-1H-pyrido[2,3-b][1,4]oxazin-3-yl)methyl)acrylamide], the EC50 in assay [1] (Homo sapiens, 144 h) is below 1 µM; in assay [3] (Homo sapiens, 144 h), below 1 µM.
In the case of `CNS(=O)(=O)N[C@@H]1C[C@@H]2CN(c3ccc(C(F)(F)F)cc3)c3cccnc3N2C1` [compound 86, N-((6aR,8R)-5-(4-(trifluoromethyl)phenyl)-5,6,6a,7,8,9-hexahydropyrido[3,2-e]pyrrolo[1,2-a]pyrazin-8-yl), N′-methylsulfuric diamide], the EC50 in assay [1] (Homo sapiens, 144 h) was 1 to 10 µM; in assay [3] (Homo sapiens, 144 h), above 10 µM. Besides, the IC50 in assay [2] (Homo sapiens, HEK-293T, 24 h) is below 1 µM.
For `C=CC(=O)N1CCN2c3nccnc3N(c3ccc(C(F)(F)F)cc3)CC2C1` (stereo not drawn) [41-En2, 1-(5-(4-(trifluoromethyl)phenyl)-5,6,6a,7,9,10-hexahydro-8H-dipyrazino[1,2-a:2′,3′-e]pyrazin-8-yl)prop-2-en-1-one], the EC50 in assay [1] and in assay [3] was below 1 µM in each case.
Consider `O=C(O)C1CCN2c3ncccc3N(c3ccc(C(F)(F)F)cc3)CC2C1` [96B-En1, (6aS,8S)- or (6aR,8S)- or (6aR,8R)- or (6aS,8R)-5-(4-(trifluoromethyl)phenyl)-6,6a,7,8,9,10-hexahydro-5H-dipyrido[1,2-a:3′,2′-e]pyrazine-8-carboxylic acid], for which the EC50 in assay [1] (Homo sapiens, 144 h) is below 1 µM; in assay [3] (Homo sapiens, 144 h), below 1 µM.
For `O=C(O)C1CCN2c3ccccc3N(c3ccc(C(F)(F)F)cc3)CC2C1` (stereo not drawn) [65B, (cis)- or (trans)-5-(4-(trifluoromethyl)phenyl)-6,6a,7,8,9,10-hexahydro-5H-pyrido[1,2-a]quinoxaline-8-carboxylic acid], the EC50 in assay [1] (Homo sapiens, 144 h) is below 1 µM; in assay [3] (Homo sapiens, 144 h), below 1 µM.
Turning to `C=CC(=O)N1CCN2c3nccnc3N(c3ccc(C(F)(F)F)cc3)CC2C1` (stereo not drawn) [41-En1, 1-(5-(4-(trifluoromethyl)phenyl)-5,6,6a,7,9,10-hexahydro-8H-dipyrazino[1,2-a:2′,3′-e]pyrazin-8-yl)prop-2-en-1-one], the EC50 was below 1 µM in assay [1] (Homo sapiens, 144 h) and below 1 µM in assay [3] (Homo sapiens, 144 h).
Turning to `C=CC(=O)NCC1CN(c2ccc(C(F)(F)F)cc2)c2cccnc2O1` (stereo not drawn) [48-En2, N-((1-(4-(trifluoromethyl)phenyl)-2,3-dihydro-1H-pyrido[2,3-b][1,4]oxazin-3-yl)methyl)acrylamide], the EC50 in assay [1] and in assay [3] was below 1 µM in each case.
